Target: SIK2 (Homo sapiens (Human), UniProt Q9H0K1)
Assay: SIK2 Enzymatic Assay Version 2 (High ATP)
Format: biochemical
Settings: 3 mM ATP and 200 μM HDAC5tide final, ADP-Glo Max luminescence
Outline: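 Run at room temperature; SIK2 enzyme at 6 nM (2× final) preincubated with compound 30 min before reaction. ADP formation detected by ADP-Glo Max (2 h reagent, 1 h detection) with luminescence read-out.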

SIK2, sequence (Q9H0K1 whole entry, species assumed): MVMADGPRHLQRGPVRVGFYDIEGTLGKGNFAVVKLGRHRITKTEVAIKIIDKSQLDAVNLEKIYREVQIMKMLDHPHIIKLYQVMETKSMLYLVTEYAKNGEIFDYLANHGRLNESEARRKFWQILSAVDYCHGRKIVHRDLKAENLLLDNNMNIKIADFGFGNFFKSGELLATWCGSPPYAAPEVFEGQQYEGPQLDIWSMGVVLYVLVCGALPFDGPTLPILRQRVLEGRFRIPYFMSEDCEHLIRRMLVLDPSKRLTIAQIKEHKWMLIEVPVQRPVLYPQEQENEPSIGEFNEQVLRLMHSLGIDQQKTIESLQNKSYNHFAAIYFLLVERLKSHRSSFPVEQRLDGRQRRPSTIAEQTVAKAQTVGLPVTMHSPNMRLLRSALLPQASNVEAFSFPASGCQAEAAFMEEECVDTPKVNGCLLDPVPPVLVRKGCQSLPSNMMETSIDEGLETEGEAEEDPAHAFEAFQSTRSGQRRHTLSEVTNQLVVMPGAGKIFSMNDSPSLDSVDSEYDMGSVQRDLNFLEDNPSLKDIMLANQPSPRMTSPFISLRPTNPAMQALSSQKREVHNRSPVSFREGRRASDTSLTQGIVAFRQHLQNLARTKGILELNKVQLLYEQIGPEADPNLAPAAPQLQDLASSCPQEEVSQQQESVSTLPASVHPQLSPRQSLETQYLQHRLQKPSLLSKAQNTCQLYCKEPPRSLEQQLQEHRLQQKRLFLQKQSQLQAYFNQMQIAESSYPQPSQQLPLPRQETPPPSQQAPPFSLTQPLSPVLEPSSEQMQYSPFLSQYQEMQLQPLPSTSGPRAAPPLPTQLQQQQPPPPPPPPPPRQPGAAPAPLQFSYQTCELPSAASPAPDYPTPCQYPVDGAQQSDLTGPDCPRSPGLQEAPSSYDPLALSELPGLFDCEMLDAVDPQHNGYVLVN

IC50 [nM]	Compound
58.9	Cn1ncc(OC[C@H]2CCN2)c1-c1ccn2nc(NC(=O)C3CC3)cc2c1 [Example 346, (R)—N-(5-(4-(azetidin-2-ylmethoxy)-1-methyl-1H-pyrazol-5-yl)pyrazolo[1,5-a]pyridin-2-yl)cyclopropanecarboxamide]
68	Cn1ncc(OC[C@H]2CCN2C2CC2)c1-c1ccn2nc(NC(=O)C3CC3)cc2c1 [Example 347, N-[5-[4-[[(2R)-1-cyclopropylazetidin-2-yl]methoxy]-2-methyl-pyrazol-3-yl]pyrazolo[1,5-a]pyridin-2-yl]cyclopropanecarboxamide]
55.9	Cc1ncc(Nc2cc3cc(-c4c(O[C@H]5CCN(C)C5)cnn4C)ccn3n2)nc1C [Example 349, N-(5,6-dimethylpyrazin-2-yl)-5-[2-methyl-4-[(3S)-1-methylpyrrolidin-3-yl]oxy-pyrazol-3-yl]pyrazolo[1,5-a]pyridin-2-amine]
66.2	Cn1ncc(OC[C@H]2CCCN2CCF)c1-c1ccn2nc(NC(=O)C3CC3)cc2c1 [Example 350, N-[5-[4-[[(2R)-1-(2-fluoroethyl)pyrrolidin-2-yl]methoxy]-2-methyl-pyrazol-3-yl]pyrazolo[1,5-a]pyridin-2-yl]cyclopropanecarboxamide]
52.6	CO[C@H]1CNC[C@@H]1COc1cnn(C)c1-c1ccn2nc(NC(=O)C3CC3)cc2c1 [Example 351, N-[5-[4-[[(3R,4R)-4-methoxypyrrolidin-3-yl]methoxy]-2-methyl-pyrazol-3-yl]pyrazolo[1,5-a]pyridin-2-yl]cyclopropanecarboxamide]
67.3	Cc1cc(Nc2cc3cc(-c4c(O[C@@H]5CCN(C)[C@H]5C)cnn4C)ccn3n2)nc(C)n1 [Example 354, N-(2,6-dimethylpyrimidin-4-yl)-5-[4-[(2S,3R)-1,2-dimethylpyrrolidin-3-yl]oxy-2-methyl-pyrazol-3-yl]pyrazolo[1,5-a]pyridin-2-amine]
< 0.847	[2H]C([2H])([2H])N1CC[C@@H]1COc1cnn(C([2H])([2H])[2H])c1-c1ccn2nc(Nc3cc(C)nc(C)n3)cc2c1 [Example 355, N-(2,6-dimethylpyrimidin-4-yl)-5-[2-(trideuteriomethyl)-4-[[(2R)-1-(trideuteriomethyl)azetidin-2-yl]methoxy]pyrazol-3-yl]pyrazolo[1,5-a]pyridin-2-amine]
52.4	CCN1CC[C@H]1COc1cnn(C)c1-c1ccn2nc(Nc3cnc(C)c(C)n3)cc2c1 [Example 359, N-(5,6-dimethylpyrazin-2-yl)-5-[4-[[(2S)-1-ethylazetidin-2-yl]methoxy]-2-methyl-pyrazol-3-yl]pyrazolo[1,5-a]pyridin-2-amine]
32.8	Cn1ncc(COC2CNC2)c1-c1ccn2nc(NC(=O)C3CC3)cc2c1 [Example 360, N-[5-[4-(azetidin-3-yloxymethyl)-2-methyl-pyrazol-3-yl]pyrazolo[1,5-a]pyridin-2-yl]cyclopropanecarboxamide]
53.9	CN1CC(OCc2cnn(C)c2-c2ccn3nc(NC(=O)C4CC4)cc3c2)C1 [Example 361, N-[5-[2-methyl-4-[(1-methylazetidin-3-yl)oxymethyl]pyrazol-3-yl]pyrazolo[1,5-a]pyridin-2-yl]cyclopropanecarboxamide]
52.8	CN1CC[C@@H](OCc2cnn(C)c2-c2ccn3nc(NC(=O)C4CC4)cc3c2)C1 [Example 362, N-[5-[2-methyl-4-[[(3R)-1-methylpyrrolidin-3-yl]oxymethyl]pyrazol-3-yl]pyrazolo[1,5-a]pyridin-2-yl]cyclopropanecarboxamide]
51.9	Cn1ncc(CO[C@H]2CCNC2)c1-c1ccn2nc(NC(=O)C3CC3)cc2c1 [Example 363, N-[5-[2-methyl-4-[[(3S)-pyrrolidin-3-yl]oxymethyl]pyrazol-3-yl]pyrazolo[1,5-a]pyridin-2-yl]cyclopropanecarboxamide]
2.9	Cc1cc(Nc2cc3cc(-c4c(CO[C@H]5CN(C)C[C@H]5C)cnn4C)ccn3n2)nc(C)n1 [Example 367, (rac-cis)-N-(2,6-dimethylpyrimidin-4-yl)-5-[4-[(1,4-dimethylpyrrolidin-3-yl)oxymethyl]-2-methyl-pyrazol-3-yl]pyrazolo[1,5-a]pyridin-2-amine]
7.2	Cc1cncc(Nc2cc3cc(-c4c(CO[C@H]5CN(C)C[C@@H]5C)cnn4C)ccn3n2)n1 [Example 373, (rac-trans)-5-[4-[(1,4-dimethylpyrrolidin-3-yl)oxymethyl]-2-methyl-pyrazol-3-yl]-N-(6-methylpyrazin-2-yl)pyrazolo[1,5-a]pyridin-2-amine]
3.6	CN1CC[C@@H]1COc1cnn(C)c1-c1ccn2nc(Nc3cnc(C(C)(C)C)cn3)cc2c1 [Example 381, N-(5-tert-butylpyrazin-2-yl)-5-[2-methyl-4-[[(2R)-1-methylazetidin-2-yl]methoxy]pyrazol-3-yl]pyrazolo[1,5-a]pyridin-2-amine]
96.1	Cc1onc(O[C@H]2CCN(C)C2)c1-c1ccn2nc(NC(=O)C3CC3)cc2c1 [Example 382, N-[5-[5-methyl-3-[(3S)-1-methylpyrrolidin-3-yl]oxy-isoxazol-4-yl]pyrazolo[1,5-a]pyridin-2-yl]cyclopropanecarboxamide]
89.9	Cc1onc(OC[C@@H]2CCCNC2)c1-c1ccn2nc(NC(=O)C3CC3)cc2c1 [Example 383, N-[5-[5-methyl-3-[[(3R)-3-piperidyl]methoxy]isoxazol-4-yl]pyrazolo[1,5-a]pyridin-2-yl]cyclopropanecarboxamide]
161	[2H]C([2H])([2H])N1CC[C@H](Oc2noc(C)c2-c2ccn3nc(NC(=O)C4CC4)cc3c2)C1 [Example 384, N-[5-[5-methyl-3-[(3S)-1-(trideuteriomethyl)pyrrolidin-3-yl]oxy-isoxazol-4-yl]pyrazolo[1,5-a]pyridin-2-yl]cyclopropanecarboxamide]
85.8	Cc1onc(OC[C@H]2C[C@H](N)C2)c1-c1ccn2nc(NC(=O)C3CC3)cc2c1 [Example 387, N-[5-[3-[(3-aminocyclobutyl)methoxy]-5-methyl-isoxazol-4-yl]pyrazolo[1,5-a]pyridin-2-yl]cyclopropanecarboxamide]
146	Cc1onc(OC[C@H]2CCCN2C)c1-c1ccn2nc(NC(=O)C3CC3)cc2c1 [Example 388, N-[5-[5-methyl-3-[[(2R)-1-methylpyrrolidin-2-yl]methoxy]isoxazol-4-yl]pyrazolo[1,5-a]pyridin-2-yl]cyclopropanecarboxamide]
125	Cc1onc(O[C@@H]2CN[C@H](C(F)F)C2)c1-c1ccn2nc(NC(=O)C3CC3)cc2c1 [Example 389, N-[5-[3-[(3S,5S)-5-(difluoromethyl)pyrrolidin-3-yl]oxy-5-methyl-isoxazol-4-yl]pyrazolo[1,5-a]pyridin-2-yl]cyclopropanecarboxamide]

Compound	IC50 [nM]
Cn1ncc(OC[C@@H](N)C(C)(C)C)c1-c1ccn2nc(NC(=O)C3CC3)cc2c1 [Example 348, N-[5-[4-[(2S)-2-amino-3,3-dimethyl-butoxy]-2-methyl-pyrazol-3-yl]pyrazolo[1,5-a]pyridin-2-yl]cyclopropanecarboxamide]	55.3
Cc1onc(O[C@H]2C[C@H](N)C2)c1-c1ccn2nc(NC(=O)C3CC3)cc2c1 [Example 386, N-[5-[3-(3-aminocyclobutoxy)-5-methyl-isoxazol-4-yl]pyrazolo[1,5-a]pyridin-2-yl]cyclopropanecarboxamide]	111

From patent US20240174662A1, “SMALL MOLECULE INHIBITORS OF SALT INDUCIBLE KINASES” (Janssen Biotech, Inc., priority 2021, published 2024)
